Results taken from patent US6323219A, “Methods for treating immunomediated inflammatory disorders” (Ortho-McNeil Pharmaceutical, Inc., priority 1999, dated 2001).
Read-outs that look alike come from different tables or passages of the source.

What was measured:
in vivo = experiment: in vivo; design: species or system male rats (Long Evans); settings: rat, iv
Procedure: Since the compounds of the formula (l) are also potent thrombin inhibitors (see U.S. Pat. No. 5,523,308), an ex vivo thrombin assay was conducted to determine the duration of action of the compounds of Formula I. For this i.v. assay male rats (Long Evans, 350-500 g) were implanted with a teflon cannulae via the femoral artery while under anesthesia (pentobarbital i.p., 35 mg/kg). After surgery, the animals were individually housed in standard cages, fed with rat chow (Hanlan, #8604) and continuously infused with physiological saline to maintain arterial patency, (0.5 mL/h, intra arterial) using a spring-shielded swiveling tether connected to an infusion system. The animals were allowed to recover for at least 24 h after the surgical procedure.
A sample of blood was drawn from the animals 15 min before dosing with the inhibitor (0.25 mL blood is drawn into a syringe containing 0.025 mL of Sigma sodium citrate). The test compound was dispersed in water and delivered to the animal (0.25 mL) via the femoral vein. The inhibitor was given at a concentration (mg/mL) which produced 80% inhibition of VO in a plasma sample at 5 min after infusion. Blood was drawn from the arterial line (blood:sodium citrate, 0.25/0.025 mL ) at regular intervals after dosing (5, 10, 15, 30, 60 and 120 min) and placed in a centrifuge tube. A plasma sample was obtained by centrifuging the blood at 10,000 rpm for 5 min. This sample is analyzed for thrombin inhibition using the chromogenic assay, described below.
The rate of increase in absorbance at 405 nm of synthetic peptides (50 μM Spectozyme® TH (H-D-HHT-Ala-Arg-pNA-2AcOH), American Diagnostica) is measured in the presence of plasma with a microplate reader (Molecular Devices) at 37° C. using an aqueous buffer (10 mM Tris, 10 mM Hepes, 150 mM NaCl, 0.1% PEG; pH 7.4). The buffer was added to the plasma samples (1:1) dilution prior to delivery to the microplate (1:5 and 1:50 for final plasma dilutions of 1:10 and 1:100 respectively) followed by the enzyme (1 nM human α thrombin). Datum was collected over a 30 min period and the initial rate of substrate hydrolysis (V0 (mOD/min)) was calculated with an analysis program (Softmax, Molecular Devices).
The time to half plasma elimination (t 1/2) was calculated from the slope of VO vs. time, using the following equation: […]. These datum are presented in Table L. In Table L, the compound # corresponds to the compound number described in U.S. Pat. No. 5,523,308.

human Lung Tryptase = experiment: Tryptase IC50 Method; format: biochemical; settings: 37° C., 1.0 nM enzyme, 500 μM substrate
Procedure: (§1) The enzyme reaction is started by the addition of enzyme ([E]: 1.0 nM human Lung Tryptase; Cortex Biochem CP3033). Data is collected over a period of 30 min. and the initial rate of substrate hydrolysis (Vo (mOD/min)) is calculated. Inhibition is calculated by comparing to wells containing no inhibitor (vehicle) and IC50 s are determined using a four parameter fit logistics model. […] The enzyme reaction is started by the addition of enzyme ([E]: 10.0 nM Human Skin Chymase; Cortex Biochem CPl 129). Data is collected over a period of 30 min. and the initial rate of substrate hydrolysis (Vo (mOD/min)) is calculated. Inhibition is calculated by comparing to wells containing no inhibitor (vehicle) and IC50 s are determined using a four parameter fit logistics model. Chymase 10 μM Screen Method: The optical density at 405 nm due to hydrolysis of synthetic chromogenic peptide substrates ([S]: 500 μM Suc-Ala-Ala-Pro-Phe-pNA; Bachem L-1400) is measured in the presence and absence of inhibitor compounds of formula (I) with a microplate reader at room temperature. The enzyme reaction is started by the addition of enzyme ([E]: 5.0 nM Human Skin Chymase; Cortex Biochem CP1129), and 3 hours following that addition data is collected. After subtracting background (no enzyme addition), inhibition is calculated by comparing to wells containing no inhibitor (vehicle).

[1] = Bioavailability, ex vivo thrombin inhibition assay after i.v. and p.o. dosing; format: in vivo; settings: rat, plasma, po, male rats
Procedure: Bioavailability was determined by an ex vivo thrombin inhibition assay which incorporated hydrolysis rates from drug administered both i.v. and p.o. In this assay male rats were prepared as described above with a Teflon tube implanted in their femoral artery. Blood was drawn from the animals 15 min before dosing with the inhibitor (0.25 mL blood was drawn into a syringe containing 0.025 mL of Sigma sodium citrate) and set aside for analysis. The test compound was dispersed in water (0.3-3.0 mg/mL final conc.) and delivered to the animals (0.25 mL) either i.v. or p.o.. […] This sample was analyzed for thrombin inhibition using the chromogenic assay, described below.
The rate of increase in absorbance at 405 nm of synthetic peptides (50 μM Spectozyme® TH (H-D-HHT-Ala-Arg-pNA-2AcOH), American Diagnostica) was measured in the presence of plasma with a microplate reader (Molecular Devices) at 37° C. using an aqueous buffer (10 mM Tris, 10 mM Hepes, 150 mM NaCI, 0.1% PEG; pH 7.4). […] Datum were collected over a 30 min period and the initial rate of substrate hydrolysis (VO (mOD/min)) was calculated with an analysis program (Softmax, Molecular Devices). […]
The percentage of thrombin inhibition in the treated animals was calculated by comparing the V0 prior to treatment with the V0 obtained from samples collected after treatment. […]

Human Skin Chymase [2] = biological target: T1, Human Skin Chymase (Homo sapiens, UniProt P23946); experiment: Chymase 10 μM Screen Method; format: biochemical; settings: read-out: Chymase % Inhibition (10 μM)
T1 construct: purchased Cortex Biochem CP1129; host or cells: human skin
T1 sequence (P23946 22-247): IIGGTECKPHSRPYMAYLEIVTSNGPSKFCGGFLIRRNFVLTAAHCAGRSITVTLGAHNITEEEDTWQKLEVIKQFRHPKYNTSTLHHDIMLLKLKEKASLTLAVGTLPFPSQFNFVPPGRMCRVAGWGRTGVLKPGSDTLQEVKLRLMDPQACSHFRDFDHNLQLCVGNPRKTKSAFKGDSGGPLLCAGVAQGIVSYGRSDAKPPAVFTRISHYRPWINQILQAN
Procedure: The enzyme reaction is started by the addition of enzyme ([E]: 1.0 nM human Lung Tryptase; Cortex Biochem CP3033). Data is collected over a period of 30 min. and the initial rate of substrate hydrolysis (Vo (mOD/min)) is calculated. Inhibition is calculated by comparing to wells containing no inhibitor (vehicle) and IC50 s are determined using a four parameter fit logistics model. […] Data is collected over a period of 30 min. and the initial rate of substrate hydrolysis (Vo (mOD/min)) is calculated. Inhibition is calculated by comparing to wells containing no inhibitor (vehicle) and IC50 s are determined using a four parameter fit logistics model. […] The enzyme reaction is started by the addition of enzyme ([E]: 5.0 nM Human Skin Chymase; Cortex Biochem CP1129), and 3 hours following that addition data is collected. After subtracting background (no enzyme addition), inhibition is calculated by comparing to wells containing no inhibitor (vehicle).

Human Skin Chymase [3] = biological target: T1, Human Skin Chymase; experiment: Chymase IC50 Method; format: biochemical; settings: 37° C., 10.0 nM enzyme, 500 μM substrate
Procedure: as §1

For `CN[C@H](Cc1ccccc1)C(=O)N1CCC[C@H]1C(=O)N[C@@H](CCCNC(=N)N)C(=O)c1nc2ccccc2s1` [Compound 1], the half-life (in vivo) was 19 min, the IC50 (human Lung Tryptase) was 7.5 nM and the bioavailability [1] was 1.2%. The inhibition at 10 µM (Human Skin Chymase [2]; 10 μM, room temperature, 5.0 nM enzyme, 3 hours) was 2%.
Molecule `CN[C@H](Cc1ccccc1)C(=O)N1CCC[C@H]1C(=O)N[C@@H](Cc1ccccc1)C(=O)c1nc2ccccc2s1` [Compound 38] has an IC50 (Human Skin Chymase [3]) of 2700 nM and an inhibition at 10 µM (Human Skin Chymase [2]) of 94%.
